{"source": "patent US20260027121A1", "about": "“LIGAND ACTING ON ADENOSINE RECEPTORS AND COMPOSITION COMPRISING SAME FOR PREVENTION, ALLEVIATION, OR TREATMENT OF OBESITYS” (FUTURE MEDICINE CO., LTD., priority 2022, published 2026)", "key": {"A3AR": {"biological_target": "T1, A3AR (Homo sapiens, UniProt P0DMS8)", "T1 sequence (P0DMS8 1-318)": "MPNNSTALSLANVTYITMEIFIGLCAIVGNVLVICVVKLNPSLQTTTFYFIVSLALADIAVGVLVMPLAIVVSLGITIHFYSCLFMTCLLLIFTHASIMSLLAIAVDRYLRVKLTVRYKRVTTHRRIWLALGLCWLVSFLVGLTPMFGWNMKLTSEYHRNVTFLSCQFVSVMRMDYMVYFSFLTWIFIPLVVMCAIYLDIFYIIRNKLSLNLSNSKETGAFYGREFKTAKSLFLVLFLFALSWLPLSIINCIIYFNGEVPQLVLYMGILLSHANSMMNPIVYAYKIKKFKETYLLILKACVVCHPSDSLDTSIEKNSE", "assay": "cAMP assay at A3AR using full agonist Cl-IB-MECA", "assay_type": "cell-based", "conditions": "FIG. 1C"}, "brown adipocytes [1]": {"test_system": "brown adipocytes", "assay": "Immunoblot of PKA downstream proteins (P-HSL, P-CREB) in brown adipocytes", "assay_type": "cell-based, mouse", "experimental": "Adipocyte precursor cells capable of differentiating into brown adipocytes were isolated from mouse brown adipose tissue. Cells were cultured in Dulbecco's modified Eagle's medium (Welgene, LM001-07) containing 10% fetal bovine serum (FBS, Gibco, 16000044) and 1% Penicillin Streptomycin (Welgene, LS202-02) at 37° C. in a humidified atmosphere with 5% CO2. When the cells reached about 100% confluency, the cells were exposed to a differentiation medium supplemented with 2.5 mM isobutyl methylxanthine (IBMX, Cayman, I5879), 0.125 mM indomethacin (Cayman, 70270), 1 μM dexamethasone (Cayman), 1 μg/mL insulin (Sigma, I9278), and 1 nM triiodothyronine (T3, Cayman, 6028) for 3 days for adipogenesis. Then, the cells were maintained in a growth medium containing 1 μg/mL insulin and 1 nM triiodothyronine (T3) for 3 days.\n(§1) In the case of Western blots, the primary antibodies used for Western blots are summarized in [Table 2] above. An anti-rabbit horseradish peroxidase antibody (1:3000, Thermo Fisher, 31460) and an anti-mouse horseradish peroxidase antibody (1:3000, Jackson, 115-035-174) were used as secondary antibodies. All antibodies were diluted in a blocking buffer (5% skimmed milk or 5% bovine serum albumin in TBST). Western blot images were acquired using a Fusion Solo chemiluminescence imaging system (Vilber Lourmat) and analyzed with Evolution Capt software (version 17.03). NIH ImageJ software was used for quantification."}, "brown adipocytes [2]": {"test_system": "brown adipocytes", "assay": "MitoTracker staining", "assay_type": "cell-based, mouse", "conditions": "0.1 μM, FIG. 4B", "experimental": "The cells were exposed to MitoTracker™ Red CMXRos (1:3000, Invitrogen, M7512) at 37° C. for 15 minutes to stain mitochondria, and then fixed in 4% paraformaldehyde (PFA, Sigma, 158127). Images were acquired with an LSM800 confocal microscope (Zeiss, Germany) and analyzed with Zen software (version 3.0)."}, "BAT, iWAT, and gWAT": {"test_system": "BAT, iWAT, and gWAT", "assay": "TTC staining of adipose tissue (ex vivo electron transport activity)", "assay_type": "in vivo, mouse", "conditions": "mice, 1 mg·kg-1day-1 intraperitoneally, 10 days", "method": "6-week-old C57BL/6 male mice and CIDEA reporter mice were used according to the approved protocols by Institutional Animal Care and Use Committees of Seoul National University (SNU-201107-1, SNU-201221-3) for in vivo experiments. The mice were housed under a 12 h-light/12 h-dark cycle condition with free access to a normal chow diet (NCD, Purina Lab, 38057, protein: 24.52% calories, carbohydrate: 63.07% calories, and fat: 12.41% calories) and water at 22±1° C. […] Ex vivo electron transport activity associated with mitochondrial oxidative phosphorylation was evaluated by monitoring the reduction of 0.1% triphenyl tetrazolium chloride (TTC, Sigma, T8877)."}, "HFD-fed mice": {"test_system": "HFD-fed mice", "assay": "Immunoblot of BAT and iWAT of treated obese mice", "assay_type": "in vivo, mouse", "conditions": "1 mg kg-1/day, 10 days", "experimental": "Mice fed a normal chow diet (NCD) and a high-fat diet (HFD) were treated with LJ-4378 (LJ, 1 mg kg-1/day) for 10 days. (A) Immunoblot analysis of BAT (n=6, mean±SEM, ** p<0.01, **** p<0.0001). (B) Immunoblot analysis in iWAT. Tubulin was a loading control. (n=6, mean±SEM, * p<0.05, *** p<0.001, **** p<0.0001).\nFor a diet-induced obesity model, mice were fed a high-fat diet (HFD)(Research Diets, D12492, protein: 20% kcal, carbohydrate: 20% kcal, and fat: 60% kcal) for 8 weeks. Then, LJ-4378 (1 mg kg-1) was injected into the mice once daily for 10 days.\nas §1"}}, "data": [{"smiles": "CCCCC#Cc1nc(N)c2ncn([C@@H]3SC[C@@H](O)[C@H]3O)c2n1", "note": "[LJ-4378, 2-(6-amino-2-(hex-1-yn-1-yl)-9H-purin-9-yl)tetrahydrothiophene-3,4-diol]", "values": [{"measurement": "KB value at A3AR", "setting": "A3AR", "result": "nM level"}, {"measurement": "P-CREB, fold increase", "setting": "brown adipocytes [1]; 0.1 μM, 24 hours, FIG. 3D", "result": "2.32±0.05", "unit": "fold"}, {"measurement": "P-HSL, fold increase", "setting": "brown adipocytes [1]; 0.1 μM, 24 hours, FIG. 3D", "result": "2.10±0.12", "unit": "fold"}, {"measurement": "P-HSL (serine 660) expression level, fold increase", "setting": "brown adipocytes [1]; 10^−5, 4 hours", "result": "6.87±0.69", "unit": "fold"}, {"measurement": "P-HSL (serine 660) expression level, fold increase", "setting": "brown adipocytes [1]; 10^−7, 4 hours", "result": "6.64±0.34", "unit": "fold"}, {"measurement": "P-HSL (serine 660) expression level, fold increase", "setting": "brown adipocytes [1]; 10^−9 M, 4 hours", "result": "3.03±0.21", "unit": "fold"}, {"measurement": "P-HSL (serine 660) expression level, fold increase", "setting": "brown adipocytes [1]; 10^−11 M, 4 hours", "result": "1.55±0.11", "unit": "fold"}, {"measurement": "mitochondrial membrane potential (MitoTracker staining), fold increase", "setting": "brown adipocytes [2]", "result": "2.12±0.06", "unit": "fold"}, {"measurement": "mitochondrial activity (TTC staining), fold increase in BAT", "setting": "BAT, iWAT, and gWAT", "result": "2.86±0.24", "unit": "fold"}, {"measurement": "mitochondrial activity (TTC staining), fold increase in gWAT", "setting": "BAT, iWAT, and gWAT", "result": "1.72±0.16", "unit": "fold"}, {"measurement": "mitochondrial activity (TTC staining), fold increase in iWAT", "setting": "BAT, iWAT, and gWAT", "result": "2.07±0.17", "unit": "fold"}, {"measurement": "COXIV upregulation in BAT", "setting": "HFD-fed mice", "result": "5.91±0.23", "unit": "fold"}, {"measurement": "COXIV upregulation in iWAT", "setting": "HFD-fed mice", "result": "1.24±0.04", "unit": "fold"}, {"measurement": "P-CREB upregulation in BAT", "setting": "HFD-fed mice", "result": "1.54±0.03", "unit": "fold"}, {"measurement": "P-CREB upregulation in iWAT", "setting": "HFD-fed mice", "result": "3.86±0.12", "unit": "fold"}, {"measurement": "P-HSL upregulation in BAT", "setting": "HFD-fed mice", "result": "2.31±0.18", "unit": "fold"}, {"measurement": "P-HSL upregulation in iWAT", "setting": "HFD-fed mice", "result": "1.72±0.04", "unit": "fold"}, {"measurement": "UCP1 upregulation in BAT", "setting": "HFD-fed mice", "result": "1.33±0.06", "unit": "fold"}, {"measurement": "UCP1 upregulation in iWAT", "setting": "HFD-fed mice", "result": "3.34±0.36", "unit": "fold"}]}]}
